Legend:
CD4+ T-cells = details: cited from earlier work
[1] = tested on: murine KLH contact sensitization model; details: cited from earlier work
murine EAE model = details: cited from earlier work
[2] = target: T1, human α4β2 neuronal nicotinic receptor (Homo sapiens, UniProt P17787+P43681); experiment: α4β2 neuronal nicotinic receptor assay (agonist radioligand, [3H]cytisine); assay type: binding; details: transfected SH-SY5Y cell membranes, 0.6 nM [3H]cytisine, band
T1 construct: host or cells: SH-SY5Y cells (membrane homogenates)
Procedure: Cell membrane homogenates (30 μg protein) were incubated for 120 min at 4° C. with 0.6 nM [3H]cytisine in the absence or presence of the test compound in a buffer containing 50 mM Tris-HCl (pH 7.4), 120 mM NaCl, 5 mM KCl, 2.5 mM CaCl2 and 1 mM MgCl2. Nonspecific binding was determined in the presence of 10 μM nicotine bitartrate. Following incubation, the samples were filtered rapidly under vacuum through glass fiber filters (GF/B, Packard) presoaked with 0.3% PEI and rinsed several times with ice-cold 50 mM Tris-HCl using a 96-sample cell harvester (Unifilter, Packard).
The filters were dried then counted for radioactivity in a scintillation counter (Topcount, Packard) using a scintillation cocktail (Microscint 0, Packard). The results were expressed as a percent inhibition of the control radioligand specific binding. The standard reference compound was nicotine bitartrate.
A number of example compounds of formula (I) were tested to evaluate their affinity for the human α4β2 neuronal nicotinic receptor expressed in transfected SH-SY5Y cells, determined in a radioligand binding assay.

[3] = target: T2, MTHFD1 recombinant human enzyme (Homo sapiens, UniProt P11586); experiment: MTHFD1 inhibition assay (NAD(P)H-Glo luminescence); details: MTHFD1 IC50, recombinant human enzyme 200 nM, NADP, band
T2 sequence (P11586 2-291 limits assumed): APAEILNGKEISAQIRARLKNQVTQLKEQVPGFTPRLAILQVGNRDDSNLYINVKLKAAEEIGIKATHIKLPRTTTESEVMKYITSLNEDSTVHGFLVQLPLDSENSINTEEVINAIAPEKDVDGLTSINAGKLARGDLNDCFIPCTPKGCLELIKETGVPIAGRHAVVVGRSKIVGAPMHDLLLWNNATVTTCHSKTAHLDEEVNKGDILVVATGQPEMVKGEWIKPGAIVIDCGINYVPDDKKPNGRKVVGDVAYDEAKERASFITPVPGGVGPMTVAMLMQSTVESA

[4] = target: T3, MTHFD2 recombinant human enzyme (Homo sapiens, UniProt P13995); experiment: MTHFD2 inhibition assay (NAD(P)H-Glo luminescence); details: for MTHFD1/MTHFD2 IC50 ratio: selectivity of MTHFD2 inhibition over MTHFD1, band
T3 sequence (P13995 36-350): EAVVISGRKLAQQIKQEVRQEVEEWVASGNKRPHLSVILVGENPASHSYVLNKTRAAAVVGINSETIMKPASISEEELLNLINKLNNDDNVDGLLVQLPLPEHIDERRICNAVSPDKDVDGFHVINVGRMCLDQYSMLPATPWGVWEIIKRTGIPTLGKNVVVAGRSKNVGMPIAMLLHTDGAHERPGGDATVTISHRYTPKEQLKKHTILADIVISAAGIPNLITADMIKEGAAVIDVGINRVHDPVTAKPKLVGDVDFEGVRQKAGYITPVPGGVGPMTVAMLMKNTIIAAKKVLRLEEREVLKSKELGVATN

human CD4+ T cells = experiment: Human CD4+ T-cell proliferation assay (CFSE, CD3/28 beads); details: read-out: Proliferation IC50

T1 sequence (P43681 29-627 limits assumed): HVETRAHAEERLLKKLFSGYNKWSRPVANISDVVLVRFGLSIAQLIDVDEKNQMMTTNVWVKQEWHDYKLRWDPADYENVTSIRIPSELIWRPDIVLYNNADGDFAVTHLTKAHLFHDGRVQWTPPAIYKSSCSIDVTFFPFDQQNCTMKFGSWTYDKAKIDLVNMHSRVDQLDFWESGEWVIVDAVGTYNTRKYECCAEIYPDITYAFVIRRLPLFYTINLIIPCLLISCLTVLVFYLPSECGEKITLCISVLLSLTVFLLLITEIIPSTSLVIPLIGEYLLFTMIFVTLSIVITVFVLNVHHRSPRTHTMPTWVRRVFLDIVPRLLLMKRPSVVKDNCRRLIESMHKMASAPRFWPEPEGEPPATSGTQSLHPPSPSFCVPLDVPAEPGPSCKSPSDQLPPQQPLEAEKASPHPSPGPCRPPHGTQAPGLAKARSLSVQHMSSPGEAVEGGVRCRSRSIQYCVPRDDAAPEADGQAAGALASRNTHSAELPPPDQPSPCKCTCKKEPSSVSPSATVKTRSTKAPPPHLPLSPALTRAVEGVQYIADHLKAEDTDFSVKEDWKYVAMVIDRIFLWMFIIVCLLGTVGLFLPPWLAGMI
T1 sequence (P17787 26-502): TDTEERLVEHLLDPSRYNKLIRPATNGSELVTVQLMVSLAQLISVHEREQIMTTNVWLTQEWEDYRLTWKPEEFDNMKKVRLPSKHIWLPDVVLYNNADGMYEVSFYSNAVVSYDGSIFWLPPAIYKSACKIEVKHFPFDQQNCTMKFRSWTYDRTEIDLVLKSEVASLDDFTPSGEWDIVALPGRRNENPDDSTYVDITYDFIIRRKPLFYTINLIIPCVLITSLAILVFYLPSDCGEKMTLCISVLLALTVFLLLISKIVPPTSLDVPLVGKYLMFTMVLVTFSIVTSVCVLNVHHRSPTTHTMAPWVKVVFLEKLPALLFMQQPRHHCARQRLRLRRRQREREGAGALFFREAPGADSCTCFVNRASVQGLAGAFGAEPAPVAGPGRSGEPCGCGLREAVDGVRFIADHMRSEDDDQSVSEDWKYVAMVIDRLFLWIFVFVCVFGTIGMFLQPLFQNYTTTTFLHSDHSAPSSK

Structure (SMILES) | number of Th1 and Th17 cells differentiated in vitro from CD4+ T-cells and expression of the respective Th1 and Th17 cytokines (CD4+ T-cells) | IFNγ and IL-17 (CD4+ T-cells; in vitro) | immune-suppressive Treg cells (CD4+ T-cells; in vitro) | tolerability at the therapeutic doses used ([1]; in vivo) | ear-swelling ([1]; murine KLH contact sensitization model) | tolerability at the therapeutic doses used (murine EAE model; in vivo) | disease severity and cumulative clinical score compared to vehicle (murine EAE model; mice, oral, day 4 to day 26) | immune cell infiltrate into the spinal cord (murine EAE model; mice, oral, day 4 to day 26) | IC50 [2] [nM] | IC50 [3] [nM] | IC50 [4] [nM] | MTHFD1/MTHFD2 IC50 ratio [4] | IC50 (human CD4+ T cells) [nM]
Cc1c(N2CCN(C)[C@@H](C)C2)ccc2c3c(c(=O)oc12)CN(C(=O)c1ccc(NS(C)(=O)=O)c(OC(F)(F)F)c1)CC3 [DS18561882] | greatly decreased | significantly reduced | increased | well tolerated | could reduce ear-swelling | – | – | – | – | – | – | – | –
Nc1nc2c(c(=O)[nH]1)N1C(=O)N(c3ccc(C(=O)N[C@@H](CCC(=O)O)C(=O)O)cc3)CC1CN2 (some centres unmarked) [LY345899] | – | – | – | – | – | well tolerated | significantly reduced | reduced | – | – | – | – | –
CCOc1c(C(=O)NS(=O)(=O)N2CCCC2)ccc(C(=O)N2CCc3c(c(=O)oc4c(C)c(N5CCN(C)[C@@H](COC)C5)cc(C)c34)C2)c1F [Example 147, (R)-2-ethoxy-3-fluoro-4-(8-(3-(methoxymethyl)-4-methylpiperazin-1-yl)-7,10-dimethyl-5-oxo-1,3,4,5-tetrahydro-2H-chromeno[3,4-c]pyridine-3-carbonyl)-N-(pyrrolidin-1-ylsulfonyl)benzamide] | – | – | – | – | – | – | – | – | 20000 to 100000 | 10 to 100 | 1 to 10 | G (^ 3 to 9.0) | 1 to 10
COC[C@H]1CN(c2cc(C)c3c4c(c(=O)oc3c2C)CN(C(=O)c2ccc(C(=O)NS(=O)(=O)N3CCCC3)c(OC3CCCC3)c2F)CC4)CCN1C [Example 4, (R)-2-(cyclopentyloxy)-3-fluoro-4-(8-(3-(methoxymethyl)-4-methylpiperazin-1-yl)-7,10-dimethyl-5-oxo-1,3,4,5-tetrahydro-2H-chromeno[3,4-c]pyridine-3-carbonyl)-N-(pyrrolidin-1-ylsulfonyl)benzamide] | – | – | – | – | – | – | – | – | 20000 to 100000 | 1 to 10 | 1 to 10 | F (<3) | 1 to 10
COC[C@H]1CN(c2cc(C)c3c4c(c(=O)oc3c2C)CN(C(=O)c2cc(N(C)C)c(C(=O)NS(=O)(=O)N3CCCC3)cc2F)CC4)CCN1C [Example 144, (R)-2-(dimethylamino)-5-fluoro-4-(8-(3-(methoxymethyl)-4-methylpiperazin-1-yl)-7,10-dimethyl-5-oxo-1,3,4,5-tetrahydro-2H-chromeno[3,4-c]pyridine-3-carbonyl)-N-(pyrrolidin-1-ylsulfonyl)benzamide] | – | – | – | – | – | – | – | – | 20000 to 100000 | 100 to 1000 | 1 to 10 | J (>30) | 1 to 10
COC[C@H]1CN(c2ccc3c4c(c(=O)oc3c2C)CN(C(=O)c2ccc(C(=O)NS(=O)(=O)N3CCCC3)c(OC3CCC3)c2F)CC4)CCN1C [Example 54, (R)-2-cyclobutoxy-3-fluoro-4-(8-(3-(methoxymethyl)-4-methylpiperazin-1-yl)-7-methyl-5-oxo-1,3,4,5-tetrahydro-2H-chromeno[3,4-c]pyridine-3-carbonyl)-N-(pyrrolidin-1-ylsulfonyl)benzamide] | – | – | – | – | – | – | – | – | > 100000 | 10 to 100 | 10 to 100 | F (<3) | 10 to 30
COC[C@H]1CN(c2cc(C)c3c4c(c(=O)oc3c2C)CN(C(=O)c2ccc(C(=O)NS(=O)(=O)N3CCCC3)c(OC3CCC3)c2F)CC4)CCN1C [Example 3, (R)-2-cyclobutoxy-3-fluoro-4-(8-(3-(methoxymethyl)-4-methylpiperazin-1-yl)-7,10-dimethyl-5-oxo-1,3,4,5-tetrahydro-2H-chromeno[3,4-c]pyridine-3-carbonyl)-N-(pyrrolidin-1-ylsulfonyl)benzamide] | – | – | – | – | – | – | – | – | 20000 to 100000 | 10 to 100 | 10 to 100 | F (<3) | 1 to 10
COC[C@H]1CN(c2cc(C)c3c4c(c(=O)oc3c2C)CN(C(=O)c2ccc(C(=O)NS(=O)(=O)N3CCCC3)c(OC3CCC3)c2)CC4)CCN1C [Example 1, (R)-2-cyclobutoxy-4-(8-(3-(methoxymethyl)-4-methylpiperazin-1-yl)-7,10-dimethyl-5-oxo-1,3,4,5-tetrahydro-2H-chromeno[3,4-c]pyridine-3-carbonyl)-N-(pyrrolidin-1-ylsulfonyl)benzamide] | – | – | – | – | – | – | – | – | 2000 to 20000 | 100 to 1000 | 100 to 1000 | F (<3) | 1 to 10

— patent US12662489B2 (Sitryx Therapeutics Limited, priority 2023, dated 2026)
